The text below walks through data of patent US4173648A, “3β-Hydroxy-18β-olean-9-en-30-oic acids” (I.S.F. SpA, priority 1977, dated 1979).

The subject of one data set is male Wistar rats. In words: anti-diuretic action, urinary sodium and potassium (method of F. M. Sullivan). In kind it is in vivo, rat (Wistar). As to conditions: for Na+/K+ ratio (urine): gastric probe, urine of five hours after treatment; for % inhibition of the ratio Na+/K+: ratio in controls = 100. The method, then: The urine produced in the five hours after treatment are collected and the potassium and sodium contents are determined. The tests were carried out at two dosage levels, 30 and 60 mg/kg, using, for each dosage level, 8 pairs of animals.

A short description of data set [1]: LD50 in mice per os (acute toxicity). As to conditions: mouse, in vivo, po.
Another data set relates to male Swiss mice. In words: anti-ulcer action, cold stress by immersion in water and contention stress (method of C. J. Pfeiffer). The note with it: controls = 100. In kind it is in vivo, mouse (Swiss). How it is done: The test was carried out on male Swiss mice with an average body weight of 23 g. subjected to cold stress by immersion in water and to a contention stress according to the method of C. J. Pfeiffer ("Peptic ulcer", Munksgaard, 1971, page 84). Three dosage levels of 25, 50 and 100 mg/kg and 15 animals for each dosage level were used.
The anti-ulcer action of the compounds was evaluated by calculating the percentage average inhibition, which indicates the inhibition of the ulcer seriousness index in the treated animals, taking 100 as the seriousness index of the controls.

Molecules are shown by their SMILES. Where a name gives a salt, the structure may show the parent alone.

Usually LD50 stands for the dose at which mortality reaches 50%. Read a low LD50 as greater toxicity. As to `CC1(C)[C@@H](OC(=O)CCC(=O)O)CC[C@]2(C)C3=CCC4[C@@H]5C[C@@](C)(C(=O)O)CC[C@]5(C)CC[C@@]4(C)[C@]3(C)CC[C@@H]12` (stereo partly drawn) [Disodium salt of 3β-(3-carboxypropionoxy)-18β-olean-9-en-30-oic acid], the “Na+/K+ ratio (urine)” value in the data set on male Wistar rats (30 mg/kg) worked out at 3.18; with male Wistar rats (60 mg/kg) it was 3.59. Besides, the “% inhibition of the ratio Na+/K+” value with male Wistar rats (30 mg/kg) is listed as 0%; in the data set with male Wistar rats (60 mg/kg), -3%. In data set [1], the LD50 amounted to 1000 mg/kg. In addition, the entries for the “% average inhibition (of the ulcer seriousness index)” value in the data set on male Swiss mice (25 mg/kg os), in the data set with male Swiss mice (50 mg/kg os) and with male Swiss mice (100 mg/kg os) were 13%, 22.5% and 70.5%, respectively.

Turning to `CC1(C)[C@@H](OC(=O)CCC(=O)O)CC[C@]2(C)[C@H]3C(=O)C=C4[C@@H]5C[C@@](C)(C(=O)O)CC[C@]5(C)CC[C@@]4(C)[C@]3(C)CC[C@@H]12` [carbenoxolone, disodium salt of glycycrrhetinic acid 3-hemisuccinate], the “Na+/K+ ratio (urine)” value in the data set with male Wistar rats (30 mg/kg) turned out to be 1.81; in the data set on male Wistar rats (60 mg/kg) it was 1.24. The entries for the “% inhibition of the ratio Na+/K+” value in the data set with male Wistar rats (30 mg/kg) and in the data set on male Wistar rats (60 mg/kg) were 43% and 64%, respectively. The compound further gave an LD50 in data set [1] of 700 mg/kg. Moreover, the results for the “% average inhibition (of the ulcer seriousness index)” value in the data set with male Swiss mice (25 mg/kg os), in the data set with male Swiss mice (50 mg/kg os) and in the data set with male Swiss mice (100 mg/kg os) were 29.5%, 29% and 63.5%, respectively.
